Test results taken from patent US20250281461A1 (The Board of Supervisors of Louisiana State University and …, priority 2021, published 2025).

Conditions: mouse, in vivo

COC(=O)Nc1nc2ccc(C(=O)c3ccccc3)cc2[nH]1 [Mebendazole]
no significant changes: serum ALT levels | serum AST levels | serum BUN levels

Cc1ccc(NC(=O)c2ccc(CN3CCN(C)CC3)cc2)cc1Nc1nccc(-c2cccnc2)n1 [Imatinib]
no significant changes: serum ALT levels | serum AST levels | serum BUN levels
